# Molecular target: T1, AsPC-1 HiBiT-KRASG12D (Homo sapiens, UniProt P01116, G12D)
# T1 construct: insert the HiBiT tag onto the N-terminus of one or more of the endogenous KRAS alleles; endogenous in cells; host or cells: AsPC-1 (ATCC CRL-1682), CRISPR-Cas9 knock-in clone, one tagged allele
# Experiment: HiBiT degradation assay (G12D), AsPC-1 HiBiT-KRASG12D cells
# Assay type: cell-based
# Conditions: 24 hours treatment; for DC50: AsPC-1 HiBiT-KRASG12D cells, HiBiT luminescence; for Dmax: ASPC1, AsPC-1 HiBiT-KRASG12D cells, maximum degradation observed
# In short: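 AsPC-1 cells carried a CRISPR knock-in of an N-terminal HiBiT tag on endogenous KRAS G12D. After 24 h compound treatment at 37 °C (triplicate), viability was read by alamar blue (4 h, fluorescence, normalized to DMSO). HiBiT-KRAS levels were then measured by Nano-Glo HiBiT lytic luminescence after 45 min at room temperature.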
# T1 sequence (P01116 1-188 isoform P01116-2 G12D): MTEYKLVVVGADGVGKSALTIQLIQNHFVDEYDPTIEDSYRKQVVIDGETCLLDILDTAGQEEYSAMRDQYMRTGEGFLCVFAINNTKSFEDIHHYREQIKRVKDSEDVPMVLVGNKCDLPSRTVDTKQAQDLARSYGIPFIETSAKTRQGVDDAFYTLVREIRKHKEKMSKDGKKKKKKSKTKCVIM
Compound,DC50,Dmax
CCc1cccc2cc(O)cc(-c3ncc4c(N5CC6CCC(C5)N6C=O)nc(OCCN5CCC(CC6CN(c7cc([C@@H](C(=O)N8C[C@H](O)C[C@H]8C(=O)N[C@@H](C)c8ccc(-c9scnc9C)cc8)C(C)C)on7)C6)CC5)nc4c3F)c12 [Compound 247],> 3000 nM,
"CCc1cccc2cc(O)cc(-c3ncc4c(N5C[C@H]6CC[C@@H](C5)N6)nc(OC[C@@H]5CC[C@@H](COC(=O)N6CCC(Oc7cc([C@@H](C(=O)N8C[C@H](O)C[C@H]8C(=O)N[C@@H](C)c8ccc(-c9scnc9C)cc8)C(C)C)on7)CC6)N5C)nc4c3F)c12 [Compound 255, ((2S,5S)-5-(((4-((1R,5S)-3,8-diazabicyclo[3.2.1]octan-3-yl)-7-(8-ethyl-3-hydroxynaphthalen-1-yl)-8-fluoropyrido[4,3-d]pyrimidin-2-yl)oxy)methyl)-1-methylpyrrolidin-2-yl)methyl 4-((5-((S)-1-((2S,4R)-4-hydroxy-2-(((S)-1-(4-(4-methylthiazol-5-yl)phenyl)ethyl)carbamoyl)pyrrolidin-1-yl)-3-methyl-1-oxobutan-2-yl)isoxazol-3-yl)oxy)piperidine-1-carboxylate]",600 to 1000 nM,20 to 60%
"CCc1cccc2cc(O)cc(-c3ncc4c(N5CC6CCC(C5)N6)nc(OC[C@@]56CCCN5[C@H](COC(=O)N5CC7(C5)CN(c5cc([C@H](C(=O)N8C[C@H](O)C[C@H]8C(=O)N[C@@H](C)c8ccc(-c9scnc9C)cc8)C(C)C)on5)C7)CC6)nc4c3F)c12 [Compound 112, [(3S,7aS)-7a-{[(4-{3,8-diazabicyclo[3.2.1]octan-3-yl}-7-(8-ethyl-3-hydroxynaphthalen-1-yl)-8-fluoropyrido[4,3-d]pyrimidin-2-yl)oxy]methyl}-hexahydro-1H-pyrrolizin-3-yl]methyl 6-{5-[(2R)-1-[(2S,4R)-4-hydroxy-2-{[(1S)-1-[4-(4-methyl-1,3-thiazol-5-yl)phenyl]ethyl]carbamoyl}pyrrolidin-1-yl]-3-methyl-1-oxobutan-2-yl]-1,2-oxazol-3-yl}-2,6-diazaspiro[3.3]heptane-2-carboxylate]",< 600 nM,80 to 100%
"CCc1cccc2cc(O)cc(-c3ncc4c(N5CC6CCC(C5)N6)nc(OCCN5CCC(F)(CN6CCN(c7cnc(C(=O)N[C@H](C(=O)N8C[C@H](O)C[C@H]8C(=O)N[C@@H](C)c8ccc(-c9scnc9C)cc8)C(C)(C)C)cn7)CC6)CC5)nc4c3F)c12 [Compound 155, 5-{4-[(1-{2-[(4-{3,8-diazabicyclo[3.2.1]octan-3-yl}-7-(8-ethyl-3-hydroxynaphthalen-1-yl)-8-fluoropyrido[4,3-d]pyrimidin-2-yl)oxy]ethyl}-4-fluoropiperidin-4-yl)methyl]piperazin-1-yl}-N-[(2S)-1-[(2S,4R)-4-hydroxy-2-{[(1S)-1-[4-(4-methyl-1,3-thiazol-5-yl)phenyl]ethyl]carbamoyl}pyrrolidin-1-yl]-3,3-dimethyl-1-oxobutan-2-yl]pyrazine-2-carboxamide]",< 600 nM,60 to 80%
"CCc1cccc2cc(O)cc(-c3ncc4c(N5CC6CCC(C5)N6)nc(OC[C@@]56CCCN5[C@H](COC(=O)N5CC(Oc7cc([C@H](C(=O)N8C[C@H](O)C[C@H]8C(=O)N[C@@H](C)c8ccc(-c9scnc9C)cc8)C(C)C)on7)C5)CC6)nc4c3F)c12 [Compound 126, [(3S,7aS)-7a-{[(4-{3,8-diazabicyclo[3.2.1]octan-3-yl}-7-(8-ethyl-3-hydroxynaphthalen-1-yl)-8-fluoropyrido[4,3-d]pyrimidin-2-yl)oxy]methyl}-hexahydro-1H-pyrrolizin-3-yl]methyl 3-({5-[(2R)-1-[(2S,4R)-4-hydroxy-2-{[(1S)-1-[4-(4-methyl-1,3-thiazol-5-yl)phenyl]ethyl]carbamoyl}pyrrolidin-1-yl]-3-methyl-1-oxobutan-2-yl]-1,2-oxazol-3-yl}oxy)azetidine-1-carboxylate]",< 600 nM,80 to 100%
"C#Cc1c(F)ccc2cc(O)cc(-c3ncc4c(N5CC6CCC(C5)N6)nc(OC[C@]56CCCN5[C@H](COC(=O)N5CCN(c7cc([C@H](C(=O)N8C[C@H](O)C[C@H]8C(=O)N[C@@H](C)c8ccc(-c9scnc9C)cc8)C(C)C)on7)CC5)CC6)nc4c3F)c12 [Compound 56, [(3S,7aR)-7a-{[(4-{3,8-diazabicyclo[3.2.1]octan-3-yl}-7-(8-ethynyl-7-fluoro-3-hydroxynaphthalen-1-yl)-8-fluoropyrido[4,3-d]pyrimidin-2-yl)oxy]methyl}-hexahydro-1H-pyrrolizin-3-yl]methyl 4-{5-[(2R)-1-[(2S,4R)-4-hydroxy-2-{[(1S)-1-[4-(4-methyl-1,3-thiazol-5-yl)phenyl]ethyl]carbamoyl}pyrrolidin-1-yl]-3-methyl-1-oxobutan-2-yl]-1,2-oxazol-3-yl}piperazine-1-carboxylate]",< 600 nM,80 to 100%
"CCc1cccc2cc(O)cc(-c3ncc4c(N5CC6CCC(C5)N6)nc(OC[C@]56CCCN5[C@H](COC(=O)N5CC(COc7cc([C@@H](C(=O)N8C[C@H](O)C[C@H]8C(=O)N[C@@H](C)c8ccc(-c9scnc9C)cc8)C(C)C)on7)C5)CC6)nc4c3F)c12 [Compound 122, [(3S,7aR)-7a-{[(4-{3,8-diazabicyclo[3.2.1]octan-3-yl}-7-(8-ethyl-3-hydroxynaphthalen-1-yl)-8-fluoropyrido[4,3-d]pyrimidin-2-yl)oxy]methyl}-hexahydro-1H-pyrrolizin-3-yl]methyl 3-[({5-[(2S)-1-[(2S,4R)-4-hydroxy-2-{[(1S)-1-[4-(4-methyl-1,3-thiazol-5-yl)phenyl]ethyl]carbamoyl}pyrrolidin-1-yl]-3-methyl-1-oxobutan-2-yl]-1,2-oxazol-3-yl}oxy)methyl]azetidine-1-carboxylate]",600 to 1000 nM,20 to 60%
"CCc1cccc2cc(O)cc(-c3ncc4c(N5CC6CCC(C5)N6)nc(OCCN5CCC(C)(COc6cc([C@@H](C(=O)N7C[C@H](O)C[C@H]7C(=O)N[C@@H](C)c7ccc(-c8scnc8C)cc7)C(C)C)on6)CC5)nc4c3F)c12 [Compound 31, (2S,4R)-1-[(2S)-2-{3-[(1-{2-[(4-{3,8-diazabicyclo[3.2.1]octan-3-yl}-7-(8-ethyl-3-hydroxynaphthalen-1-yl)-8-fluoropyrido[4,3-d]pyrimidin-2-yl)oxy]ethyl}-4-methylpiperidin-4-yl)methoxy]-1,2-oxazol-5-yl}-3-methylbutanoyl]-4-hydroxy-N-[(1S)-1-[4-(4-methyl-1,3-thiazol-5-yl)phenyl]ethyl]pyrrolidine-2-carboxamide]",> 3000 nM,
"CCc1cccc2cc(O)cc(-c3ncc4c(N5CC6CCC(C5)N6)nc(OC[C@]56CCCN5[C@H](COC(=O)N5CCN(c7cc(C(C(=O)N8C[C@H](O)C[C@H]8C(=O)N[C@@H](C)c8ccc(-c9scnc9C)cc8)C(C)C)on7)CC5)CC6)nc4c3F)c12 (single isomer, unassigned) [Compound 109, [(3S,7aR)-7a-{[(4-{3,8-diazabicyclo[3.2.1]octan-3-yl}-7-(8-ethyl-3-hydroxynaphthalen-1-yl)-8-fluoropyrido[4,3-d]pyrimidin-2-yl)oxy]methyl}-hexahydro-1H-pyrrolizin-3-yl]methyl 4-{5-[(2R*)-1-[(2S,4R)-4-hydroxy-2-{[(1S)-1-[4-(4-methyl-1,3-thiazol-5-yl)phenyl]ethyl]carbamoyl}pyrrolidin-1-yl]-3-methyl-1-oxobutan-2-yl]-1,2-oxazol-3-yl}piperazine-1-carboxylate]",< 600 nM,80 to 100%
"CCc1cccc2cc(O)cc(-c3ncc4c(N5CC6CCC(C5)N6)nc(OC[C@@]56CCCN5[C@@H](COC(=O)N5CCN(c7cc([C@H](C(=O)N8C[C@H](O)C[C@H]8C(=O)N[C@@H](C)c8ccc(-c9scnc9C)cc8)C(C)C)on7)CC5)CC6)nc4c3F)c12 [Compound 106, [(3R,7aS)-7a-{[(4-{3,8-diazabicyclo[3.2.1]octan-3-yl}-7-(8-ethyl-3-hydroxynaphthalen-1-yl)-8-fluoropyrido[4,3-d]pyrimidin-2-yl)oxy]methyl}-hexahydro-1H-pyrrolizin-3-yl]methyl 4-{5-[(2R)-1-[(2S,4R)-4-hydroxy-2-{[(1S)-1-[4-(4-methyl-1,3-thiazol-5-yl)phenyl]ethyl]carbamoyl}pyrrolidin-1-yl]-3-methyl-1-oxobutan-2-yl]-1,2-oxazol-3-yl}piperazine-1-carboxylate]",< 600 nM,80 to 100%
"CCc1cccc2cc(O)cc(-c3ncc4c(N5CC6CCC(C5)N6)nc(OC[C@@H]5CN(CC6CN(c7cc([C@H](C(=O)N8C[C@H](O)C[C@H]8C(=O)N[C@@H](C)c8ccc(-c9scnc9C)cc8)C(C)C)on7)C6)CCN5C)nc4c3F)c12 [Compound 163, (2S,4R)-1-[(2R)-2-[3-(3-{[(3S)-3-{[(4-{3,8-diazabicyclo[3.2.1]octan-3-yl}-7-(8-ethyl-3-hydroxynaphthalen-1-yl)-8-fluoropyrido[4,3-d]pyrimidin-2-yl)oxy]methyl}-4-methylpiperazin-1-yl]methyl}azetidin-1-yl)-1,2-oxazol-5-yl]-3-methylbutanoyl]-4-hydroxy-N-[(1S)-1-[4-(4-methyl-1,3-thiazol-5-yl)phenyl]ethyl]pyrrolidine-2-carboxamide]",< 600 nM,60 to 80%
"C#Cc1c(F)ccc2cc(O)cc(-c3ncc4c(N5CC6CCC(C5)N6)nc(OCCN5CCC(CC6CN(c7cc([C@H](C(=O)N8C[C@H](O)C[C@H]8C(=O)N[C@@H](C)c8ccc(-c9scnc9C)cc8)C(C)C)on7)C6)CC5)nc4c3F)c12 (single isomer, unassigned) [Compound 288]",< 600 nM,80 to 100%
